Tests used:
Format in all cases: in vivo
[1] = system: barnyardgrass (Echinochloa crus-galli); assay: Test A greenhouse herbicide test, pre- and postemergence
Procedure, shortened: (§1)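 Seeds in loam–sand blend received a preemergence directed soil spray; plants at 2–10 cm, one- to two-leaf stage, received postemergence sprays. Compounds in a non-phytotoxic solvent with surfactant. After about 10 d in a greenhouse, injury rated visually versus untreated controls on a 0–100 scale (100 = complete control).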

corn (Zea mays) = assay: as above; settings: Postemergence
Procedure, shortened: as §1

[2] = system: foxtail, giant (giant foxtail, Setaria faberii); assay: as above
Procedure, shortened: as §1

kochia (Kochia scoparia) [3] = assay: as above
Procedure, shortened: as §1

[4] = system: pigweed (Amaranthus retroflexus); assay: as above
Procedure, shortened: as §1

[5] = system: ragweed (common ragweed, Ambrosia elatior); assay: as above
Procedure, shortened: as §1

[6] = system: ryegrass, Italian (Italian ryegrass, Lolium multiflorum); assay: as above
Procedure, shortened: as §1

[7] = system: wheat (Triticum aestivum); assay: as above; settings: Postemergence
Procedure, shortened: as §1

[8] = system: blackgrass (Alopecurus myosuroides); assay: Test A greenhouse herbicide test, postemergence
Procedure, shortened: (§2)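 Pot-grown plants (loam soil/sand blend), 2–10 cm tall at the one- to two-leaf stage, received postemergence sprays of formulated test chemical. After about 10 d in the greenhouse, injury was rated visually against untreated controls on a 0 (no effect) to 100 (complete control) scale.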

[9] = system: galium (catchweed bedstraw, Galium aparine); assay: Test A greenhouse herbicide test, postemergence
Procedure, shortened: as §2

kochia (Kochia scoparia) [10] = assay: Test C greenhouse herbicide test, postemergence
Procedure, shortened: (§3)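 Visual injury scores (0–100, where 100 means complete control) were assigned 13 to 15 d after postemergence application, by comparison with untreated plants. Treated seedlings stood 2 to 18 cm tall, at the 1- to 4-leaf stage.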

[11] = system: oat, wild (wild oat, Avena fatua); assay: Test C greenhouse herbicide test, postemergence
Procedure, shortened: as §3

[12] = Postemergence, 125 g ai/ha, 0 to 100 scale, 0 no effect, 100 complete control
[13] = Postemergence, 500 g ai/ha, visual rating after approx. 10 d, 0 to 100 scale (0 no effect, 100 complete control)
[14] = Preemergence, 125 g ai/ha, visual injury rating, 0 to 100 scale (0 no effect, 100 complete control), approx. 10 d
[15] = Preemergence, 500 g ai/ha, 0 to 100 scale where 0 is no effect and 100 is complete control
[16] = 125 g ai/ha, 0 to 100 scale, 0 no effect, 100 complete control
[17] = 500 g ai/ha, visual rating after approx. 10 d, 0 to 100 scale (0 no effect, 100 complete control)
[18] = Postemergence, 31 g ai/ha, scale 0 to 100 (0 no effect, 100 complete control)
[19] = Postemergence, 62 g ai/ha, 0 to 100 scale (0 no effect, 100 complete control)
[20] = Postemergence, 250 g ai/ha, scale 0 to 100, 0 no effect, 100 complete control, 13 to 15 d
[21] = postemergence, 125 g ai/ha, scale 0 to 100, 0 no effect, 100 complete control
[22] = Postemergence, 125 g ai/ha, 0 to 100 scale where 0 is no effect and 100 is complete control
[23] = Postemergence, 500 g ai/ha, 0 to 100 scale, 0 is no effect, 100 is complete control
[24] = Preemergence, 125 g ai/ha, 0 to 100 scale where 0 is no effect and 100 is complete control
[25] = 125 g ai/ha, 0 to 100 scale where 0 is no effect and 100 is complete control
[26] = 500 g ai/ha, 0 to 100 scale, 0 is no effect, 100 is complete control
[27] = Postemergence, 125 g ai/ha, scale 0 to 100, 0 is no effect, 100 is complete control
[28] = postemergence, 62 g ai/ha, scale 0 to 100, 0 no effect, 100 complete control

COC(=O)Oc1c(C)nn(C)c(=O)c1-c1c([N+](=O)[O-])ccc2ccccc12 [Compound 162]
80: Plant response rating, Pigweed [4, 12] | Plant response rating, Pigweed [4, 14] | Plant response rating, Ragweed [5, 12] | Kochia plant response rating (kochia (Kochia scoparia) [10]; [19])
20: Plant response rating, Barnyardgrass [1, 12] | Plant response rating, Barnyardgrass [1, 15] | Plant response rating, Corn (corn (Zea mays); [16]) | Plant response rating, Foxtail, Giant [2, 12] | Plant response rating, Wheat [7, 17] | Plant response rating, Blackgrass [8, 16]
90: Plant response rating, Kochia (kochia (Kochia scoparia) [3]; [13]) | Plant response rating, Kochia (kochia (Kochia scoparia) [3]; [15]) | Plant response rating, Pigweed [4, 13] | Plant response rating, Pigweed [4, 15] | Plant response rating, Ragweed [5, 15] | Plant response rating, Ryegrass, Italian [6, 13] | Plant response rating, Galium [9, 16] | Plant response rating, Kochia (kochia (Kochia scoparia) [10]; [20]) | Kochia plant response rating (kochia (Kochia scoparia) [10]; [21])
70: Plant response rating, Kochia (kochia (Kochia scoparia) [3]; [12]) | Plant response rating, Kochia (kochia (Kochia scoparia) [10]; [18]) | Plant response rating, Oat, Wild [11, 20] | Oat, Wild plant response rating [11, 21]
10: Plant response rating, Barnyardgrass [1, 14] | Plant response rating, Foxtail, Giant [2, 14]
100: Plant response rating, Ragweed [5, 13] | Plant response rating, Ryegrass, Italian [6, 15] | Plant response rating, Galium [9, 17]
50: Plant response rating, Barnyardgrass [1, 13] | Plant response rating, Ragweed [5, 14] | Plant response rating, Oat, Wild [11, 18]
30: Plant response rating, Corn (corn (Zea mays); [17])
40: Plant response rating, Foxtail, Giant [2, 13] | Plant response rating, Foxtail, Giant [2, 15] | Plant response rating, Ryegrass, Italian [6, 14] | Plant response rating, Blackgrass [8, 17]
60: Plant response rating, Kochia (kochia (Kochia scoparia) [3]; [14]) | Plant response rating, Ryegrass, Italian [6, 12] | Oat, Wild plant response rating [11, 19]
0: Plant response rating, Wheat [7, 16]

CC(=O)Oc1c(C)nn(C)c(=O)c1-c1ccc(F)c2ccccc12 [Compound 90]
30: Corn plant response rating (corn (Zea mays); [26]) | Wheat plant response rating [7, 26]
90: Ragweed plant response rating [5, 24] | Blackgrass plant response rating [8, 26] | Plant response rating, Oat, Wild [11, 27]
80: Plant response rating, Barnyardgrass [1, 22] | Plant response rating, Foxtail, Giant [2, 22]
60: Barnyardgrass plant response rating [1, 24]
95: Plant response rating, Oat, Wild [11, 20]
70: Kochia plant response rating (kochia (Kochia scoparia) [3]; [24]) | Plant response rating, Blackgrass [8, 25] | Oat, Wild plant response rating [11, 28]
50: Foxtail, Giant plant response rating [2, 24]
100: Barnyardgrass plant response rating [1, 23] | Plant response rating, Barnyardgrass [1, 15] | Foxtail, Giant plant response rating [2, 23] | Plant response rating, Foxtail, Giant [2, 15] | Plant response rating, Kochia (kochia (Kochia scoparia) [3]; [22]) | Kochia plant response rating (kochia (Kochia scoparia) [3]; [23]) | Plant response rating, Kochia (kochia (Kochia scoparia) [3]; [15]) | Plant response rating, Pigweed [4, 22] | Pigweed plant response rating [4, 23] | Pigweed plant response rating [4, 24] | Plant response rating, Pigweed [4, 15] | Plant response rating, Ragweed [5, 22] | Ragweed plant response rating [5, 23] | Plant response rating, Ragweed [5, 15] | Plant response rating, Ryegrass, Italian [6, 22] | Ryegrass, Italian plant response rating [6, 23] | Ryegrass, Italian plant response rating [6, 24] | Plant response rating, Ryegrass, Italian [6, 15] | Plant response rating, Galium [9, 25] | Galium plant response rating [9, 26] | Plant response rating, Kochia (kochia (Kochia scoparia) [10]; [27]) | Plant response rating, Kochia (kochia (Kochia scoparia) [10]; [20]) | Kochia plant response rating (kochia (Kochia scoparia) [10]; [28])
20: Plant response rating, Corn (corn (Zea mays); [25]) | Plant response rating, Wheat [7, 25]

CCC(=O)Oc1c(C)nn(C)c(=O)c1-c1ccc(Br)c2ccccc12 [Compound 133]
60: Plant response rating, Blackgrass [8, 25] | Plant response rating, Blackgrass [8, 17]
40: Foxtail, Giant plant response rating [2, 24] | Kochia plant response rating (kochia (Kochia scoparia) [3]; [24])
20: Plant response rating, Barnyardgrass [1, 22] | Barnyardgrass plant response rating [1, 24] | Plant response rating, Foxtail, Giant [2, 22] | Plant response rating, Wheat [7, 25]
10: Plant response rating, Corn (corn (Zea mays); [25])
50: Plant response rating, Barnyardgrass [1, 15] | Plant response rating, Corn (corn (Zea mays); [17])
70: Plant response rating, Foxtail, Giant [2, 15]
98: Plant response rating, Kochia (kochia (Kochia scoparia) [10]; [18])
80: Pigweed plant response rating [4, 24]
95: Plant response rating, Oat, Wild [11, 20] | Oat, Wild plant response rating [11, 21]
30: Plant response rating, Wheat [7, 17]
100: Plant response rating, Kochia (kochia (Kochia scoparia) [3]; [13]) | Plant response rating, Kochia (kochia (Kochia scoparia) [3]; [15]) | Plant response rating, Pigweed [4, 13] | Plant response rating, Pigweed [4, 15] | Plant response rating, Ragweed [5, 22] | Plant response rating, Ragweed [5, 13] | Plant response rating, Ragweed [5, 15] | Plant response rating, Ryegrass, Italian [6, 22] | Plant response rating, Ryegrass, Italian [6, 13] | Ryegrass, Italian plant response rating [6, 24] | Plant response rating, Ryegrass, Italian [6, 15] | Plant response rating, Galium [9, 25] | Plant response rating, Galium [9, 17] | Kochia plant response rating (kochia (Kochia scoparia) [10]; [19]) | Plant response rating, Kochia (kochia (Kochia scoparia) [10]; [20]) | Kochia plant response rating (kochia (Kochia scoparia) [10]; [21])
90: Plant response rating, Barnyardgrass [1, 13] | Plant response rating, Foxtail, Giant [2, 13] | Plant response rating, Kochia (kochia (Kochia scoparia) [3]; [22]) | Plant response rating, Pigweed [4, 22] | Ragweed plant response rating [5, 24] | Plant response rating, Oat, Wild [11, 18] | Oat, Wild plant response rating [11, 19]

Reference: patent US10597388B2, “Pyridazinone herbicides” (FMC CORPORATION, priority 2014, dated 2020)
